Tests used:
[1] = target: T1, Recombinant STAT3 protein (STAT3(G127-I722)) (Homo sapiens, UniProt P40763); assay: STAT3 Fluorescence Polarization (FP) Assay; assay type: binding; conditions: STAT3(G127-I722) 25 nM, probe 5-FAM-GpYLPQTV-NH2 2 nM, 45-minute incubation
T1 construct: STAT3(G127-I722)
Method in brief: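 Serially diluted compounds (1% DMSO) were mixed with 2 nM fluorescent phosphotyrosine peptide and 25 nM STAT3 construct G127-I722, pH 7.4, incubated 45 min at room temperature. IC50 values from fitted polarization curves are reported as categories A (≤100 nM), B, C, D (>10 μM).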

[2] = target: T2, Recombinant STAT6 protein (STAT6(W123-T658)) (Homo sapiens, UniProt P42226); assay: STAT6 Fluorescence Polarization (FP) Assay; assay type: binding; conditions: STAT6(W123-T658) 250 nM, probe 5-FAM-ApYKPFQDLI-NH2 2 nM, 45-minute incubation
T2 construct: STAT6(W123-T658)
T2 sequence (P42226 123-658): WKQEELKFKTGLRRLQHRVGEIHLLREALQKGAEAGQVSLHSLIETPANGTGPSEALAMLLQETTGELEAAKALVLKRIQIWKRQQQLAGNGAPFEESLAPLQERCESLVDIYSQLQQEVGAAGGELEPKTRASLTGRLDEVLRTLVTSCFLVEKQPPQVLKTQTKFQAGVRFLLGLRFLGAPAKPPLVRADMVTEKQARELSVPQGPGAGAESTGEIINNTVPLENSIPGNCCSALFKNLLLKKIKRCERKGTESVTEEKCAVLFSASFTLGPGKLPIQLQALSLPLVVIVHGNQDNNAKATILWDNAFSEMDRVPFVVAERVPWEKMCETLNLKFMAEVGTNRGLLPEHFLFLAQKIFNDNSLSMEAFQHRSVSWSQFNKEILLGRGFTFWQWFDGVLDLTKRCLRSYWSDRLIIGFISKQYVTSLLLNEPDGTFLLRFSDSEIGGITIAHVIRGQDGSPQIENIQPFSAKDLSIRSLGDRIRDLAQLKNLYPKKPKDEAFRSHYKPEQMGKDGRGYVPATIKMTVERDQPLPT
Method in brief: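 Competitive displacement of a fluorescent phosphotyrosine peptide (2 nM) from recombinant STAT6 W123-T658 (250 nM), 45 min at room temperature in 10 mM HEPES pH 7.4, 50 mM NaCl, 2 mM DTT. mP fitted against log compound for IC50, grouped A (≤300 nM) to D (>30 μM).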

T1 sequence (P40763 127-722, species assumed): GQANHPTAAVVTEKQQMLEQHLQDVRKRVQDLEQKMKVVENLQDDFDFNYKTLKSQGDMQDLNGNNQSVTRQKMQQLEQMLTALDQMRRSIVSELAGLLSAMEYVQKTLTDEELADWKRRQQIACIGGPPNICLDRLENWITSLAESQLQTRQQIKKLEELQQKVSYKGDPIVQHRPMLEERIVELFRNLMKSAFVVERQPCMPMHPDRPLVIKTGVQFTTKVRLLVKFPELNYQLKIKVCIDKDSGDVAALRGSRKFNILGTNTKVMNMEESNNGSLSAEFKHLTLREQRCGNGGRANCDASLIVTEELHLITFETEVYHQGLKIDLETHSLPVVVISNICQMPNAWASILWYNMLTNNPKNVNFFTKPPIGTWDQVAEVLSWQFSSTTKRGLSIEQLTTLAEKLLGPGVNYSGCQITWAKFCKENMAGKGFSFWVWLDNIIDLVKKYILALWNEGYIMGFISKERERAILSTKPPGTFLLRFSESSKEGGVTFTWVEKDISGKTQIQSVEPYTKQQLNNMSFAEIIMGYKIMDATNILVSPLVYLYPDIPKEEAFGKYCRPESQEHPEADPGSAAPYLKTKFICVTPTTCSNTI

| IC50 [1] | IC50 [2] | Compound |
| --- | --- | --- |
| 1 to 10 µM | 3 to 30 µM | O=C(N[C@H]1C[C@@H]2C[C@@H]2C[C@H]2CC[C@@H](C(=O)N3CCOc4cccnc43)N2C1=O)c1cc2cc(C(F)P(=O)(O)O)ccc2s1 (stereo partly drawn) [Example 385, ((2-(((3S,6S,7aS,8aR,9aR)-3-(3,4-dihydro-2H-pyrido[3,2-b][1,4]oxazine-4-carbonyl)-5-oxodecahydro-1H-cyclopropa[d]pyrrolo[1,2-a]azocin-6-yl)carbamoyl)benzo[b]thiophen-5-yl)fluoromethyl)phosphonic acid] |
| 0.1 to 1 µM | > 30 µM | O=C(N[C@H]1C[C@H]2C[C@H]2C[C@H]2CC[C@@H](C(=O)N3CC(n4ccnc4)C3)N2C1=O)c1cc2cc(CP(=O)(O)O)ccc2s1 [Compound 25, ((2-(((3S,6S,7aR,8aS,9aR)-3-(3-(1H-imidazol-1-yl)azetidine-1-carbonyl)-5-oxodecahydro-1H-cyclopropa[d]pyrrolo[1,2-a]azocin-6-yl)carbamoyl)benzo[b]thiophen-5-yl)methyl)phosphonic acid] |
| < 0.1 µM | 3 to 30 µM | O=C(N[C@H]1C[C@@H]2C[C@@H]2C[C@H]2CC[C@@H](C(=O)N3CC(c4ncccn4)C3)N2C1=O)c1cc2cc(C(F)(F)P(=O)(O)O)ccc2s1 [Compound 65, (difluoro(2-(((3S,6S,7aS,8aR,9aR)-5-oxo-3-(3-(pyrimidin-2-yl)azetidine-1-carbonyl)decahydro-1H-cyclopropa[d]pyrrolo[1,2-a]azocin-6-yl)carbamoyl)benzo[b]thiophen-5-yl)methyl)phosphonic acid] |
| < 0.1 µM | 3 to 30 µM | O=C(N[C@H]1C[C@H]2C[C@H]2C[C@H]2CC[C@@H](C(=O)N3CC(CC(F)F)(c4ccccc4)C3)N2C1=O)c1cc2cc(C(F)(F)P(=O)(O)O)ccc2s1 [Compound 73, ((2-(((3S,6S,7aR,8aS,9aR)-3-(3-(2,2-difluoroethyl)-3-phenylazetidine-1-carbonyl)-5-oxodecahydro-1H-cyclopropa[d]pyrrolo[1,2-a]azocin-6-yl)carbamoyl)benzo[b]thiophen-5-yl)difluoromethyl)phosphonic acid] |
| < 0.1 µM | 3 to 30 µM | COC1(c2nccn2C)CN(C(=O)[C@@H]2CC[C@@H]3CC4(C)CC4C[C@H](NC(=O)c4cc5cc(C(F)(F)P(=O)(O)O)ccc5s4)C(=O)N32)C1 (stereo in doubt) [Example 239, (difluoro(2-(((3S,6S,7aR,8aS,9aR)-3-(3-methoxy-3-(1-methyl-1H-imidazol-2-yl)azetidine-1-carbonyl)-8a-methyl-5-oxodecahydro-1H-cyclopropa[d]pyrrolo[1,2-a]azocin-6-yl)carbamoyl)benzo[b]thiophen-5-yl)methyl)phosphonic acid] |
| < 0.1 µM | > 30 µM | COCC1(F)CN(c2ccncc2C2CN(C(=O)[C@@H]3CC[C@@H]4C[C@H]5C[C@H]5C[C@H](NC(=O)c5cc6cc([C@@H](F)P(=O)(O)O)ccc6s5)C(=O)N43)C2)C1 [Example 425, ((S)-fluoro(2-(((3S,6S,7aS,8aR,9aR)-3-(3-(4-(3-fluoro-3-(methoxymethyl)azetidin-1-yl)pyridin-3-yl)azetidine-1-carbonyl)-5-oxodecahydro-1H-cyclopropa[d]pyrrolo[1,2-a]azocin-6-yl)carbamoyl)benzo[b]thiophen-5-yl)methyl)phosphonic acid] |
| < 0.1 µM | > 30 µM | COc1ccncc1C1CN(C(=O)[C@@H]2CC[C@@H]3C[C@H]4C[C@H]4C[C@H](NC(=O)c4cc5cc(CP(=O)(O)O)ccc5s4)C(=O)N32)C1 [Example 265, ((2-(((3S,6S,7aS,8aR,9aR)-3-(3-(4-methoxypyridin-3-yl)azetidine-1-carbonyl)-5-oxodecahydro-1H-cyclopropa[d]pyrrolo[1,2-a]azocin-6-yl)carbamoyl)benzo[b]thiophen-5-yl)methyl)phosphonic acid] |
| 0.1 to 1 µM | > 30 µM | O=C(N[C@H]1C[C@H]2C[C@H]2C[C@H]2CC[C@@H](C(=O)N3CC(c4ccccn4)C3)N2C1=O)c1cc2cc(CP(=O)(O)O)ccc2s1 [Compound 23, ((2-(((3S,6S,7aR,8aS,9aR)-5-oxo-3-(3-(pyridin-2-yl)azetidine-1-carbonyl)decahydro-1H-cyclopropa[d]pyrrolo[1,2-a]azocin-6-yl)carbamoyl)benzo[b]thiophen-5-yl)methyl)phosphonic acid] |
| < 0.1 µM | 0.3 to 3 µM | O=C(N[C@H]1C[C@@H]2C[C@@H]2C[C@H]2CC[C@@H](C(=O)N3C[C@H]4[C@@H]3CCN4c3cccnc3)N2C1=O)c1cc2cc(C(F)P(=O)(O)O)ccc2s1 (stereo partly drawn) [Example 295, (fluoro(2-(((3S,6S,7aS,8aR,9aR)-5-oxo-3-((1S,5S)-2-(pyridin-3-yl)-2,6-diazabicyclo[3.2.0]heptane-6-carbonyl)decahydro-1H-cyclopropa[d]pyrrolo[1,2-a]azocin-6-yl)carbamoyl)benzo[b]thiophen-5-yl)methyl)phosphonic acid] |
| < 0.1 µM | 3 to 30 µM | O=C(N[C@H]1C[C@@H]2C[C@@H]2C[C@H]2CC[C@@H](C(=O)N3CC(c4ccon4)C3)N2C1=O)c1cc2cc(C(F)P(=O)(O)O)ccc2s1 (stereo partly drawn) [Example 312, (fluoro(2-(((3S,6S,7aS,8aR,9aR)-3-(3-(isoxazol-3-yl)azetidine-1-carbonyl)-5-oxodecahydro-1H-cyclopropa[d]pyrrolo[1,2-a]azocin-6-yl)carbamoyl)benzo[b]thiophen-5-yl)methyl)phosphonic acid] |
| < 0.1 µM | 3 to 30 µM | C[C@H]1COCCN1C(=O)C1CN(C(=O)[C@@H]2CC[C@@H]3C[C@H]4C[C@H]4C[C@H](NC(=O)c4cc5cc(C(F)(F)P(=O)(O)O)ccc5s4)C(=O)N32)C1 [Compound 14, (difluoro(2-(((3S,6S,7aS,8aR,9aR)-3-(3-((S)-3-methylmorpholine-4-carbonyl)azetidine-1-carbonyl)-5-oxodecahydro-1H-cyclopropa[d]pyrrolo[1,2-a]azocin-6-yl)carbamoyl)benzo[b]thiophen-5-yl)methyl)phosphonic acid] |
| 0.1 to 1 µM | 3 to 30 µM | O=C(N[C@H]1C[C@@H]2C[C@@H]2C[C@H]2CC[C@@H](C(=O)N3CCN(C(=O)[C@H]4CCOC4)CC3)N2C1=O)c1cc2cc(C(F)(F)P(=O)(O)O)ccc2s1 [Example 8, (Difluoro(2-(((3S,6S,7aS,8aR,9aR)-5-oxo-3-(4-((S)-tetrahydrofuran-3-carbonyl)piperazine-1-carbonyl)decahydro-1H-cyclopropa[d]pyrrolo[1,2-a]azocin-6-yl)carbamoyl)benzo[b]thiophen-5-yl)methyl)phosphonic acid] |
| 1 to 10 µM | 3 to 30 µM | COC[C@@H]1CCN1c1ccncc1C1CN(C(=O)[C@@H]2CC[C@@H]3C[C@H]4C[C@H]4C[C@H](NC(=O)c4cc5cc([C@@H](F)P(=O)(O)O)ccc5s4)C(=O)N32)C1 (single isomer, unassigned) [Example 410] |
| < 0.1 µM | 3 to 30 µM | Cc1ccncc1C1CN(C(=O)[C@@H]2CC[C@@H]3C[C@@H]4C[C@@H]4C[C@H](NC(=O)c4cc5cc(C(F)P(=O)(O)O)ccc5s4)C(=O)N32)C1 (stereo partly drawn) [Example 320, (fluoro(2-(((3S,6S,7aR,8aS,9aR)-3-(3-(4-methylpyridin-3-yl)azetidine-1-carbonyl)-5-oxodecahydro-1H-cyclopropa[d]pyrrolo[1,2-a]azocin-6-yl)carbamoyl)benzo[b]thiophen-5-yl)methyl)phosphonic acid] |
